In US20220396777A1, “PATIENT-MATCHED ORGANOID SYSTEMS FOR STUDYING CANCER” (Dana-Farber Cancer Institute, Inc., priority 2019, published 2022):

Tested on: organoids from classical versus basal-like tumors
Experiment: IFNγ treatment of organoids from classical and basal-like tumors
Type: cell-based, human
Source text: FIG. 37—Micrographs and graph showing results of IFNγ treatment in organoids from classical and basal-like tumors.
Applicants next asked whether organoids from classical versus basal-like tumors respond differently to addition of IFNγ.

Substance: IFNγ: cytokine (type II interferon) added to organoid cultures
- effect on expression state in organoids (classical expression state, patient-derived PDAC organoids (FIG. 37)): select against the classical expression state
- return to a basal state (patient-derived PDAC organoids (FIG. 37)): may not be sufficient to drive complete return to a basal state
- growth inhibition by IFNγ (patient-derived PDAC organoids, classical versus basal-like tumors, preliminary results (FIG. 37)): more pronounced in organoids derived from classical tumors
